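A five-concentration, 48-hour dose response in 96-well plates underlies each endpoint, interpolated linearly between surrounding concentrations. At the TGI there is no net growth.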
Assays:
Assay in all cases: DTP human tumour cell line panel, 48 h
[1] = test system: SNB-19 CNS
[2] = test system: UACC-257 melanoma
[3] = test system: RXF 393 renal
[4] = test system: SNB-78 CNS
[5] = test system: HL-60(TB) leukemia
[6] = test system: M14 melanoma
[7] = test system: LXFL 529 NSCLC
[8] = test system: DLD-1 colon
[9] = test system: A549 NSCLC
[10] = test system: NCI-H226 lung
[11] = test system: HT29 colon
[12] = test system: OVCAR-4 ovarian
[13] = test system: HCC-2998 colon
[14] = test system: SF-295 CNS
[15] = test system: SR leukemia
[16] = test system: MOLT-4 leukemia
[17] = test system: U251 CNS
[18] = test system: EKVX NSCLC
[19] = test system: COLO 205 colon
[20] = test system: OVCAR-3 ovarian
[21] = test system: CCRF-CEM leukemia
[22] = test system: SNB-75 CNS
[23] = test system: SK-MEL-2 melanoma
[24] = test system: SW-620 colon
[25] = test system: SN12C renal
[26] = test system: NCI-H460 lung
[27] = test system: UO-31 renal
[28] = test system: TK-10 renal
[29] = test system: OVCAR-8 ovarian
[30] = test system: MALME-3M melanoma
[31] = test system: KM20L2 colon
[32] = test system: NCI-H522 lung
[33] = test system: M19-MEL melanoma
[34] = test system: ACHN renal
[35] = test system: IGROV1 ovarian
[36] = test system: 786-0 renal
[37] = test system: HCT-15 colon
[38] = test system: K-562 leukemia
[39] = test system: SF-539 CNS
[40] = test system: SK-OV-3 ovarian
[41] = test system: UACC-62 melanoma
[42] = test system: HCT-116 colon
[43] = test system: DMS 273 small cell lung
[44] = test system: SK-MEL-28 melanoma
[45] = test system: HOP-62 NSCLC
[46] = test system: XF 498 CNS
[47] = test system: LOX IMVI melanoma
[48] = test system: KM12 colon
[49] = test system: HOP-92 NSCLC
[50] = test system: SF-268 CNS
[51] = test system: NCI-H23 lung
[52] = test system: SK-MEL-5 melanoma
[53] = test system: DMS 114 small cell lung
[54] = test system: RPMI-8226 leukemia
[55] = test system: A498 renal

Cc1nc2c(n1CC(C)C)C(=O)c1ccccc1C2=O
TGI [1]: > 100 µM
TGI [2]: 45.4 µM
TGI [3]: > 100 µM
TGI [4]: > 100 µM
TGI [5]: > 100 µM
TGI [6]: > 100 µM
TGI [7]: > 100 µM
TGI [8]: > 100 µM
TGI [9]: 97.7 µM
TGI [10]: > 100 µM
TGI [11]: > 100 µM
TGI [12]: > 100 µM
TGI [13]: > 100 µM
TGI [14]: > 100 µM
TGI [15]: > 100 µM
TGI [16]: > 100 µM
TGI [17]: > 100 µM
TGI [18]: > 100 µM
TGI [19]: > 100 µM
TGI [20]: 82.1 µM
TGI [21]: > 100 µM
TGI [22]: > 100 µM
TGI [23]: 74.7 µM
TGI [24]: > 100 µM
TGI [25]: > 100 µM
TGI [26]: 54.2 µM
TGI [27]: > 100 µM
TGI [28]: > 100 µM
TGI [29]: > 100 µM
TGI [30]: 40.6 µM
TGI [31]: > 100 µM
TGI [32]: 76.5 µM
TGI [33]: 29.6 µM
TGI [34]: > 100 µM
TGI [35]: > 100 µM
TGI [36]: > 100 µM
TGI [37]: > 100 µM
TGI [38]: > 100 µM
TGI [39]: 87.6 µM
TGI [40]: > 100 µM
TGI [41]: 50.5 µM
TGI [42]: 67.4 µM
TGI [43]: > 100 µM
TGI [44]: > 100 µM
TGI [45]: > 100 µM
TGI [46]: 95.9 µM
TGI [47]: > 100 µM
TGI [48]: > 100 µM
TGI [49]: 65.7 µM
TGI [50]: > 100 µM
TGI [51]: 49.2 µM
TGI [52]: 34.7 µM

CCCOP1(=O)C=C(O)C(Cl)=C(C)C1 (stereo not drawn)
TGI [1]: > 100 µM
TGI [2]: > 100 µM
TGI [3]: > 100 µM
TGI [4]: > 100 µM
TGI [5]: > 100 µM
TGI [6]: > 100 µM
TGI [7]: > 100 µM
TGI [8]: > 100 µM
TGI [9]: > 100 µM
TGI [10]: > 100 µM
TGI [11]: > 100 µM
TGI [12]: > 100 µM
TGI [13]: > 100 µM
TGI [14]: > 100 µM
TGI [15]: > 100 µM
TGI [16]: > 100 µM
TGI [17]: > 100 µM
TGI [18]: > 100 µM
TGI [19]: > 100 µM
TGI [20]: > 100 µM
TGI [21]: > 100 µM
TGI [22]: > 100 µM
TGI [23]: > 100 µM
TGI [24]: > 100 µM
TGI [25]: > 100 µM
TGI [26]: > 100 µM
TGI [27]: > 100 µM
TGI [28]: > 100 µM
TGI [29]: > 100 µM
TGI [30]: > 100 µM
TGI [31]: > 100 µM
TGI [32]: > 100 µM
TGI [33]: > 100 µM
TGI [34]: > 100 µM
TGI [35]: > 100 µM
TGI [36]: > 100 µM
TGI [37]: > 100 µM
TGI [38]: > 100 µM
TGI [39]: > 100 µM
TGI [40]: > 100 µM
TGI [41]: > 100 µM
TGI [42]: > 100 µM
TGI [43]: > 100 µM
TGI [44]: > 100 µM
TGI [45]: > 100 µM
TGI [46]: > 100 µM
TGI [47]: > 100 µM
TGI [48]: > 100 µM
TGI [49]: > 100 µM
TGI [50]: > 100 µM
TGI [51]: > 100 µM
TGI [52]: > 100 µM

CCOC(=O)C(C(CC(=O)OC)NC(=O)OCc1ccccc1)C1(C)OCCO1 (stereo not drawn)
TGI [1]: > 100 µM
TGI [2]: > 100 µM
TGI [3]: > 100 µM
TGI [5]: > 100 µM
TGI [6]: > 100 µM
TGI [7]: > 100 µM
TGI [8]: > 100 µM
TGI [9]: > 100 µM
TGI [10]: > 100 µM
TGI [11]: > 100 µM
TGI [12]: > 100 µM
TGI [13]: > 100 µM
TGI [14]: > 100 µM
TGI [15]: > 100 µM
TGI [16]: > 100 µM
TGI [17]: > 100 µM
TGI [18]: > 100 µM
TGI [19]: > 100 µM
TGI [20]: > 100 µM
TGI [21]: > 100 µM
TGI [22]: > 100 µM
TGI [23]: > 100 µM
TGI [24]: > 100 µM
TGI [25]: > 100 µM
TGI [53]: > 100 µM
TGI [26]: > 100 µM
TGI [27]: > 100 µM
TGI [28]: > 100 µM
TGI [29]: > 100 µM
TGI [30]: > 100 µM
TGI [54]: > 100 µM
TGI [31]: > 100 µM
TGI [34]: > 100 µM
TGI [35]: > 100 µM
TGI [36]: > 100 µM
TGI [37]: > 100 µM
TGI [38]: > 100 µM
TGI [39]: > 100 µM
TGI [55]: > 100 µM
TGI [41]: > 100 µM
TGI [42]: > 100 µM
TGI [43]: > 100 µM
TGI [44]: > 100 µM
TGI [45]: > 100 µM
TGI [46]: > 100 µM
TGI [47]: > 100 µM
TGI [50]: > 100 µM
TGI [51]: > 100 µM
TGI [52]: > 100 µM
